Measurements from patent US20260098053A1, “COMPOSITIONS AND METHODS FOR TREATING CNS DISORDERS” (SAGE THERAPEUTICS, INC., priority 2019, published 2026).

Biological target: [35S]-TBPS binding, rat brain cortical membranes
Assay: Steroid inhibition of [35S]-TBPS binding
Details: Table 4, 3 nM [35S]-TBPS, in the presence of 5 mM GABA, read-out: TBPS IC50
Description: [35S]-t-Butylbicyclophosphorothionate (TBPS) binding assays using rat brain cortical membranes in the presence of 5 mM GABA has been described (Gee et al, J. Pharmacol. Exp. Ther. 1987, 241, 346-353; Hawkinson et al, Mol. Pharmacol. 1994, 46, 977-985; Lewin, A. H et al., Mol. Pharmacol. 1989, 35, 189-194).
Briefly, cortices are rapidly removed following decapitation of carbon dioxide-anesthetized Sprague-Dawley rats (200-250 g). The cortices are homogenized in 10 volumes of ice-cold 0.32 M sucrose using a glass/teflon homogenizer and centrifuged at 1500×g for 10 min at 4° C. The resultant supernatants are centrifuged at 10,000×g for 20 min at 4° C. to obtain the P2 pellets. The P2 pellets are resuspended in 200 mM NaCl/50 mM Na—K phosphate pH 7.4 buffer and centrifuged at 10,000×g for 10 min at 4° C. This washing procedure is repeated twice and the pellets are resuspended in 10 volumes of buffer. Aliquots ([…]) of the membrane suspensions are incubated with 3 nM [^35S]-TBPS and […] aliquots of test drug dissolved in dimethyl sulfoxide (DMSO) (final 0.5%) in the presence of 5 mM GABA. The incubation is brought to a final volume of 1.0 mL with buffer. Nonspecific binding is determined in the presence of […] and ranged from 15 to 25%. Following a 90 min incubation at room temp, the assays are terminated by filtration through glass fiber filters (Schleicher and Schuell No. 32) using a cell harvester (Brandel) and rinsed three times with ice-cold buffer. Filter bound radioactivity is measured by liquid scintillation spectrometry. Non-linear curve fitting of the overall data for each drug averaged for each concentration is done using Prism (GraphPad). […] The concentration of test compound producing 50% inhibition (IC50) of specific binding and the maximal extent of inhibition (Imax) are determined for the individual experiments with the same model used for the overall data and then the means±SEM.s of the individual experiments are calculated.
Various compounds are or can be screened to determine their potential as modulators of [^35S]-TBPS binding in vitro. These assays are or can be performed in accordance with the above

First: CC[C@@]1(O)CCC[C@@]2(C)[C@H](CC[C@@H]3[C@@H]2CC[C@]2(C)[C@@H](C(C)=O)CCC[C@@H]32)C1 [Example 37, 1-((1S,4aS,4bR,6aR,8R,11aS,11bS,13aS)-8-ethyl-8-hydroxy-11a,13a-dimethyloctadecahydro-1H-cyclohepta[a]phenanthren-1-yl)ethanone]
Second: CC(=O)[C@H]1CCC[C@H]2[C@@H]3CC[C@@H]4CC[C@](C)(O)CC[C@]4(C)[C@H]3CC[C@]12C [Example 53, 1-((1S,4aS,4bR,6aR,9S,11aS,11bS,13aS)-9-hydroxy-9,11a,13a-trimethyloctadecahydro-1H-cyclohepta[a]phenanthren-1-yl)ethanone]
The IC50 of the first is lower: 0.1 to 1 µM for the first, greater than 1 µM for the second. The first is the more potent here.

Compared with `C[C@@]1(O)CCC[C@@]2(C)[C@H](CC[C@@H]3[C@@H]2CC[C@]2(C)[C@H](C(=O)Cn4cc(C#N)cn4)CCC[C@@H]32)C1` [Example 17, 1-(2-((1R,4aS,4bR,6aR,8R,11aS,11bS,13aS)-8-hydroxy-8,11a,13a-trimethyloctadecahydro-1H-cyclohepta[a]phenanthren-1-yl)-2-oxoethyl)-1H-pyrazole-4-carbonitrile], `C[C@@]1(O)CCC[C@@]2(C)[C@H](CC[C@@H]3[C@@H]2CC[C@]2(C)[C@@H](C(=O)CCn4cc(C#N)cn4)CCC[C@@H]32)C1` [Example 18, 1-(3-((1S,4aS,4bR,6aR,8R,11aS,11bS,13aS)-8-hydroxy-8,11a,13a-trimethyloctadecahydro-1H-cyclohepta[a]phenanthren-1-yl)-3-oxopropyl)-1H-pyrazole-4-carbonitrile] is lower in IC50: greater than 1 µM for the first, less than 0.1 µM for the second. The second is the more potent here.

Compared with `C[C@]1(O)CC[C@@H]2CC[C@@H]3[C@H](CC[C@]4(C)[C@H](C(=O)Cn5cc(C#N)cn5)CCC[C@@H]34)[C@@]2(C)CC1` [Example 45, 1-(2-((1R,4aS,4bR,6aS,9S,11aS,11bS,13aS)-9-hydroxy-9,11a,13a-trimethyloctadecahydro-1H-cyclohepta[a]phenanthren-1-yl)-2-oxoethyl)-1H-pyrazole-4-carbonitrile], `CC[C@]12CC[C@H]3[C@@H](CC=C4CC[C@](C)(O)CC[C@@]43C)[C@@H]1CC[C@@H]2C(=O)Cn1cc(C#N)cn1` [Example 35, 1-(2-((1S,3aS,3bS,8S,10aR,10bS,12aS)-12a-ethyl-8-hydroxy-8,10a-dimethyl-1,2,3,3a,3b,4,6,7,8,9,10,10a,10b,11,12,12a-hexadecahydrocyclohepta[a]cyclopenta[f]naphthalen-1-yl)-2-oxoethyl)-1H-pyrazole-4-carbonitrile] is lower in IC50: greater than 1 µM for the first, less than 0.1 µM for the second.

`CC[C@@]1(O)CCC[C@H]2[C@H](CC[C@@H]3[C@@H]2CC[C@]2(C)[C@H](C(C)=O)CCC[C@@H]32)C1` [Example 36, 1-((1R,4aS,4bR,6aR,8R,11aS,11bR,13aS)-8-ethyl-8-hydroxy-13a-methyloctadecahydro-1H-cyclohepta[a]phenanthren-1-yl)ethenone] and `CC(=O)[C@H]1CCC[C@H]2[C@@H]3CC[C@@H]4CC[C@](C)(O)CC[C@@H]4[C@H]3CC[C@]12C` [Example 1, 1-((1S,4aS,4bR,6aR,9S,11aS,11bR,13aS)-9-hydroxy-9,13a-dimethyloctadecahydro-1H-cyclohepta[a]phenanthren-1-yl)ethan-1-one] cannot be ordered by IC50: greater than 1 µM for the first, greater than 1 µM for the second.

Same assay, conditions: Table 6, 3 nM [35S]-TBPS, in the presence of 5 mM GABA, read-out: IC50

With `CC(=O)[C@H]1CCC[C@H]2[C@@H]3CC[C@@H]4C[C@](C)(O)CC[C@]4(C4CC4)[C@H]3CC[C@]12C` [Example 85, 1-((1S,4aS,4bS,6aR,8R,10aR,10bS,12aS)-10a-cyclopropyl-8-hydroxy-8,12a-dimethyloctadecahydrochrysen-1-yl)ethan-1-one] the IC50 was less than 0.1 µM.
